Measured values reported in ChEMBL document CHEMBL4630901 (2021).

Tests used:
Conditions in all cases: Compound concentration 10.0 uM
[1] = target: GABA-A receptor; anion channel (Rattus norvegicus) (UniProt O09028+P15431+P18506+P18508+P19969+P20236+P23574+P23576+P28471+P28473+P30191+P62813+P63079+P63138+Q91ZM7+Q9ES14)
[2] = target: D(1B) dopamine receptor (Homo sapiens) (UniProt P21918)
[3] = target: Sodium-dependent serotonin transporter (Homo sapiens) (UniProt P31645)
[4] = target: T1, 5-hydroxytryptamine receptor 1A (Homo sapiens) (UniProt P08908)
T1 sequence (whole entry): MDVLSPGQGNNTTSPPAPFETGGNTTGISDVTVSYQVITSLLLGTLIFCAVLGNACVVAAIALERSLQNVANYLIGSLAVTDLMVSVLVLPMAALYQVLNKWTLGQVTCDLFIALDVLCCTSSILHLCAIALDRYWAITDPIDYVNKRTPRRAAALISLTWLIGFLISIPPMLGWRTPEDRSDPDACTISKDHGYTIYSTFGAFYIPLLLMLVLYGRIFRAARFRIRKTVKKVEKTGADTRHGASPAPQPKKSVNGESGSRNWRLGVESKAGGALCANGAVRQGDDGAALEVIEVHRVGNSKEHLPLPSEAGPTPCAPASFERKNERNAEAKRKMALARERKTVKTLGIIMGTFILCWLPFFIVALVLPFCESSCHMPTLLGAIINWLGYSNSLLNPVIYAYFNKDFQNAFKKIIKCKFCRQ

[5] = target: Beta-2 adrenergic receptor (Homo sapiens) (UniProt P07550)
Beta-2 adrenergic receptor (Homo sapiens), sequence (P07550 whole entry, looked up): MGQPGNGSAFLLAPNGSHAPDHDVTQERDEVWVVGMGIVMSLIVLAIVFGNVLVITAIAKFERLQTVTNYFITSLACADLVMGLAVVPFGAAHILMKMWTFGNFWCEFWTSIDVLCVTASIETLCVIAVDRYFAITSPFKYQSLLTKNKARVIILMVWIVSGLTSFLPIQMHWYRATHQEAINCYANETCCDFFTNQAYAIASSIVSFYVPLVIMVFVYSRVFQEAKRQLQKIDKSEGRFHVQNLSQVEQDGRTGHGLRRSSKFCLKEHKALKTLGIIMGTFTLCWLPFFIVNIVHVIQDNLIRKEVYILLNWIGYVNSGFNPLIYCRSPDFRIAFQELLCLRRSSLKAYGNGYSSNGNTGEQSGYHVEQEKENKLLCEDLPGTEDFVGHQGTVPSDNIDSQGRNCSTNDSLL

[6] = target: 5-hydroxytryptamine receptor 6 (Homo sapiens) (UniProt P50406)
5-hydroxytryptamine receptor 6 (Homo sapiens), sequence (P50406 whole entry): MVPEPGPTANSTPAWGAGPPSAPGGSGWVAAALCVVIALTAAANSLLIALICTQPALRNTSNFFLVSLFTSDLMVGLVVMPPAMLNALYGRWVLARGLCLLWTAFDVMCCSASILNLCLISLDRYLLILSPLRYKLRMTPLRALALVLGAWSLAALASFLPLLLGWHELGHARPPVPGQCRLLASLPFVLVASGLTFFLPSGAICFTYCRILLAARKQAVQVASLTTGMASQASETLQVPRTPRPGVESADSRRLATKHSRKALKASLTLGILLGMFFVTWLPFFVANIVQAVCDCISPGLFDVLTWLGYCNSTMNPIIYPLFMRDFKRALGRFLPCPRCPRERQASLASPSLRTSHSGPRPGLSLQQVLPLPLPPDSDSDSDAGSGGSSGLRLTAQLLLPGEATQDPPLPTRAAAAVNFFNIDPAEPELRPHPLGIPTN

[7] = target: T2, Alpha-2C adrenergic receptor (Homo sapiens) (UniProt P18825)
T2 sequence (whole entry): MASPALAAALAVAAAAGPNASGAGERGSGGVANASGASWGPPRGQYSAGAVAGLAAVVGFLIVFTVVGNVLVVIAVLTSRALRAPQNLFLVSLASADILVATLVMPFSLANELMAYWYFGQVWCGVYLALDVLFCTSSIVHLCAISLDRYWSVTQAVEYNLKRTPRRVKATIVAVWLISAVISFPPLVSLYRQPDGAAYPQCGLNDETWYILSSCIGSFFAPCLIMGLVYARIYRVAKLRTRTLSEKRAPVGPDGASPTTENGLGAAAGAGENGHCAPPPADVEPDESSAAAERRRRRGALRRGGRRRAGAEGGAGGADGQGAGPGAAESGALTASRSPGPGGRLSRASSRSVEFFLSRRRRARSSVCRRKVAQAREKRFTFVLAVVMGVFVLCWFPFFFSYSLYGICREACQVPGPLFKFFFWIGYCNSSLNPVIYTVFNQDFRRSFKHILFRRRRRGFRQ

[8] = target: T3, Muscarinic acetylcholine receptor M2 (Homo sapiens) (UniProt P08172)
T3 sequence (whole entry): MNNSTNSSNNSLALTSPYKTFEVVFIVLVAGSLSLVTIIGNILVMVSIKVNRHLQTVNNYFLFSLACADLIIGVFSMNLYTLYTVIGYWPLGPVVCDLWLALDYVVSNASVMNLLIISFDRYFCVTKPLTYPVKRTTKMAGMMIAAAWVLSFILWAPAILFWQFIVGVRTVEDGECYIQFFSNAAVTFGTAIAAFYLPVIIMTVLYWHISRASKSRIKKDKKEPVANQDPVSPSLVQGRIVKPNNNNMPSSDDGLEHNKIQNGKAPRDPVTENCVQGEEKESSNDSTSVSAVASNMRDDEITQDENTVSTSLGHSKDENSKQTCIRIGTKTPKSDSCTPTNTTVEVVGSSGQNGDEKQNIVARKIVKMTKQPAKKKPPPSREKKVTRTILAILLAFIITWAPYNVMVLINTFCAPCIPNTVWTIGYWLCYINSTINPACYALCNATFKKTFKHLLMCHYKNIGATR

[9] = target: 5-hydroxytryptamine receptor 1B (Homo sapiens) (UniProt P28222)
5-hydroxytryptamine receptor 1B (Homo sapiens), sequence (P28222 whole entry): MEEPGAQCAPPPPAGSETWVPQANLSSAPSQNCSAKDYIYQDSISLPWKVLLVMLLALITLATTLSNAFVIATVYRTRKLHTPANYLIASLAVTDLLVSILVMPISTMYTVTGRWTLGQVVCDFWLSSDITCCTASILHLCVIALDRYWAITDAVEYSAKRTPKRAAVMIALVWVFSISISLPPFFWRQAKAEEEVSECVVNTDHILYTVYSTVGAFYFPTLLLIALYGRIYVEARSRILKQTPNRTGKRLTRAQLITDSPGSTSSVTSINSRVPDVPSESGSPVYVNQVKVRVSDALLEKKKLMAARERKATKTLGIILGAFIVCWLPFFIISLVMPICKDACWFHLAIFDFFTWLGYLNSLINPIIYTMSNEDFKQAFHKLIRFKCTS

[10] = target: Beta-1 adrenergic receptor (Homo sapiens) (UniProt P08588)
Beta-1 adrenergic receptor (Homo sapiens), sequence (P08588 whole entry, looked up): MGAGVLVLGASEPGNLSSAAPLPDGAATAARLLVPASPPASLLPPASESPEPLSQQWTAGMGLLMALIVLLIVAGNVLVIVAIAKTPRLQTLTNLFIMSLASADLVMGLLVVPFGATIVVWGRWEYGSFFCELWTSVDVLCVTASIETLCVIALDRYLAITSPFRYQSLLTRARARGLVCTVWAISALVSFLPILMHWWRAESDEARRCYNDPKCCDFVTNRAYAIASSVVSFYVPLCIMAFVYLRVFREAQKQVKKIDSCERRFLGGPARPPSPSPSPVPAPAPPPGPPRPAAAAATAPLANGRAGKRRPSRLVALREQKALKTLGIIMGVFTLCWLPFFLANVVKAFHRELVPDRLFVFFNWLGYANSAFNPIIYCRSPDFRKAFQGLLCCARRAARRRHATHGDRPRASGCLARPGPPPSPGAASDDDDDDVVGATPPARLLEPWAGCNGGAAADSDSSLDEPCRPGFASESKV

[11] = target: T4, 5-hydroxytryptamine receptor 2C (Homo sapiens) (UniProt P28335)
T4 sequence (whole entry): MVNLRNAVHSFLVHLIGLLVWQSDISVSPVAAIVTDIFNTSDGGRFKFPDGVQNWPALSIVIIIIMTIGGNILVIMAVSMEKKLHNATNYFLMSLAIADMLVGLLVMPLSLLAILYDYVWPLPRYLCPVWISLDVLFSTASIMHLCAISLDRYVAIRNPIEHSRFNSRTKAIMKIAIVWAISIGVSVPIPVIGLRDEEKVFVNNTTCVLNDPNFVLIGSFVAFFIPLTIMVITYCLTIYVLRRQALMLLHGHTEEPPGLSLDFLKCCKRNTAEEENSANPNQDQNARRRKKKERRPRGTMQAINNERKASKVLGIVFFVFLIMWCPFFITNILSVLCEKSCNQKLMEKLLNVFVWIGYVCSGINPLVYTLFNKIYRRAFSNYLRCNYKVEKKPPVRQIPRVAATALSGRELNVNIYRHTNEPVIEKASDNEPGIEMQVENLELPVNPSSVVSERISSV

[12] = target: Mu-type opioid receptor (Homo sapiens) (UniProt P35372)
[13] = target: D(4) dopamine receptor (Homo sapiens) (UniProt P21917)
D(4) dopamine receptor (Homo sapiens), sequence (P21917 whole entry): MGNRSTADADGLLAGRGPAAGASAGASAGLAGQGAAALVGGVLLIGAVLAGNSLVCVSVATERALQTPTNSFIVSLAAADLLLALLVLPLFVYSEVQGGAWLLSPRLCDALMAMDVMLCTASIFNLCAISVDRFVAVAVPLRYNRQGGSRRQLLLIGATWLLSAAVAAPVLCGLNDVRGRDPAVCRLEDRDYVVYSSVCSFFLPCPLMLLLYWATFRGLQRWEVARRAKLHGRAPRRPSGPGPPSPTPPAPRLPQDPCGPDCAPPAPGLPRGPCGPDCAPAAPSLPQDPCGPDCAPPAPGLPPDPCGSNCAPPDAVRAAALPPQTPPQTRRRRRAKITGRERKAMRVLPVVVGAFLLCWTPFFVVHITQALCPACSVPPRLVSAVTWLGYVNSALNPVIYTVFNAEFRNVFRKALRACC

[14] = target: Alpha-1B adrenergic receptor (Homo sapiens) (UniProt P35368)
Alpha-1B adrenergic receptor (Homo sapiens), sequence (P35368 whole entry): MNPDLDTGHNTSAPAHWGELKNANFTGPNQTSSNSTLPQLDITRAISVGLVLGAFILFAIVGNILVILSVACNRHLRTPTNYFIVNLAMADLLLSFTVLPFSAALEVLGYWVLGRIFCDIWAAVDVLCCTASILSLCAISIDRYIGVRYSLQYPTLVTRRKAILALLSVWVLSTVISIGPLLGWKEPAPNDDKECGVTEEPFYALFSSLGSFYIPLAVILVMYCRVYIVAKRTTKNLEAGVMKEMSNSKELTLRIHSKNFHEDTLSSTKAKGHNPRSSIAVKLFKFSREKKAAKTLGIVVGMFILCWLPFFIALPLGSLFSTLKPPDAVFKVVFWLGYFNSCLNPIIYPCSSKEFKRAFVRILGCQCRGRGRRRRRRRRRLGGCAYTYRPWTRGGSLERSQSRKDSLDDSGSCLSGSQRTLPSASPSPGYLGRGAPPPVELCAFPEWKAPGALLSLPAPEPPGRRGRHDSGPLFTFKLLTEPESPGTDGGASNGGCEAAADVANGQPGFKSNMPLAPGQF

[15] = target: 5-hydroxytryptamine receptor 2B (Homo sapiens) (UniProt P41595)
5-hydroxytryptamine receptor 2B (Homo sapiens), sequence (P41595 whole entry): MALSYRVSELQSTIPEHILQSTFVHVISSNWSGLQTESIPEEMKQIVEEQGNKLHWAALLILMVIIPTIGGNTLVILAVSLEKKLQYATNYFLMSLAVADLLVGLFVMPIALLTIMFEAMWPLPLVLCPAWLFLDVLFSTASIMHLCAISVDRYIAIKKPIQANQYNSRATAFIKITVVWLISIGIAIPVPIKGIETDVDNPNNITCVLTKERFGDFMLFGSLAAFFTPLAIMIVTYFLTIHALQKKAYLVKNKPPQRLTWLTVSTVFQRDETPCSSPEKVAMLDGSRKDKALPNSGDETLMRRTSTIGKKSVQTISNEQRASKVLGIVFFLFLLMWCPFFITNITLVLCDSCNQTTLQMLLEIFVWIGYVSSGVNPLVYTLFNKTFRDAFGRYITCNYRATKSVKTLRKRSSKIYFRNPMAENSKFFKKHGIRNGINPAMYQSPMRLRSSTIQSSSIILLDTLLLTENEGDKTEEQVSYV

[16] = target: D(2) dopamine receptor (Homo sapiens) (UniProt P14416)
D(2) dopamine receptor (Homo sapiens), sequence (P14416 whole entry): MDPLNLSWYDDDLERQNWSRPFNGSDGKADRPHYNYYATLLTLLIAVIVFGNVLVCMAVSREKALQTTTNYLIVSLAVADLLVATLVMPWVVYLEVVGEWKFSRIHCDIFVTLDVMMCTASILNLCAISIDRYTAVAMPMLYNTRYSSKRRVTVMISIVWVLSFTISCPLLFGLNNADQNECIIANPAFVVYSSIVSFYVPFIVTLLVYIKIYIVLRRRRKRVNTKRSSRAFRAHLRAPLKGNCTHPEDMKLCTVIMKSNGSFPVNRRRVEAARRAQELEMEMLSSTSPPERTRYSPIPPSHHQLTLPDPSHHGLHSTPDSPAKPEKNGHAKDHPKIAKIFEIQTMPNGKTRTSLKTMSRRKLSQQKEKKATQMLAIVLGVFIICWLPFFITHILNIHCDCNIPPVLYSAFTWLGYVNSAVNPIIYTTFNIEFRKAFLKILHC

[17] = target: 5-hydroxytryptamine receptor 3A (Homo sapiens) (UniProt P46098)
[18] = target: Histamine H1 receptor (Homo sapiens) (UniProt P35367)
Histamine H1 receptor (Homo sapiens), sequence (P35367 whole entry): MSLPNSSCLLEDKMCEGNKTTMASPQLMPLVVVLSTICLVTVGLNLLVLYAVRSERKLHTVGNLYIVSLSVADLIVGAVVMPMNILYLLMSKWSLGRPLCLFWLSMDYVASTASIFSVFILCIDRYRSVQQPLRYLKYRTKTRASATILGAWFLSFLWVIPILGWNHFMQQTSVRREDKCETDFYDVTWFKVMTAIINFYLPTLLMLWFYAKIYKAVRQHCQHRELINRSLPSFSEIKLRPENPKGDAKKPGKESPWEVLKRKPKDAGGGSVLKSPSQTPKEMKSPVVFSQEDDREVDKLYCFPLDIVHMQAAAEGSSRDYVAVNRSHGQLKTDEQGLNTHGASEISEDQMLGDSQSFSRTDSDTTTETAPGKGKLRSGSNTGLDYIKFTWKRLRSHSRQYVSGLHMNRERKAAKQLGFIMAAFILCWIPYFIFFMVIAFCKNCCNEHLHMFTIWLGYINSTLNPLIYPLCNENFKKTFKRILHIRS

Rattus norvegicus = organism: Rattus norvegicus
[19] = target: 5-hydroxytryptamine receptor 5A (Homo sapiens) (UniProt P47898)
5-hydroxytryptamine receptor 5A (Homo sapiens), sequence (P47898 whole entry): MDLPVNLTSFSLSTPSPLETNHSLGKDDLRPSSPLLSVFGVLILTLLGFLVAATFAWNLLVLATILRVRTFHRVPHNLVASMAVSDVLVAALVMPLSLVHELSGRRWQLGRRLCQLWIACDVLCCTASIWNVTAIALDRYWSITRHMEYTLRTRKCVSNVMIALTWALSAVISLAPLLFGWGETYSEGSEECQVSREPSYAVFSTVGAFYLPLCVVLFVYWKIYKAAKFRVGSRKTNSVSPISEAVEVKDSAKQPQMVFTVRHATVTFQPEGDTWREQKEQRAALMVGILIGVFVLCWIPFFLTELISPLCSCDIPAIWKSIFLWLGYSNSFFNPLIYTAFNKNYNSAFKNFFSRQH

[20] = target: Muscarinic acetylcholine receptor M3 (Homo sapiens) (UniProt P20309)

D(1B) dopamine receptor (Homo sapiens), sequence (P21918 whole entry): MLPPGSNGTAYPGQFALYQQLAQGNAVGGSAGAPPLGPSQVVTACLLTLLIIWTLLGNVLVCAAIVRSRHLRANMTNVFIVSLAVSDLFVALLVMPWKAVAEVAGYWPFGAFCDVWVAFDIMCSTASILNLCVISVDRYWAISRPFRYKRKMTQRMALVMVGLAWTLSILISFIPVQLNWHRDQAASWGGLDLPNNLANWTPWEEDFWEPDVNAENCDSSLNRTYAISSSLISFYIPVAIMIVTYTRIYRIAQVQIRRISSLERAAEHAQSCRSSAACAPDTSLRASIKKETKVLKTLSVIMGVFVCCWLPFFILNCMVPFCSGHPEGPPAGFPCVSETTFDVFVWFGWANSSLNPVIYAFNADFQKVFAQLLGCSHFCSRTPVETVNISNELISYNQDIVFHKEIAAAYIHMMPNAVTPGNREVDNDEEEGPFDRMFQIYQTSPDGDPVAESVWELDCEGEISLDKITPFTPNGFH

Structure (SMILES) | inhibition [1] | inhibition [2] | inhibition [3] | inhibition [4] | inhibition [5] | inhibition [6] | inhibition [7] | inhibition [8] | inhibition [9] | inhibition [10] | inhibition [11] | inhibition [12] | inhibition [13] | inhibition [14] | inhibition [15] | inhibition [16] | inhibition [17] | inhibition [18] | inhibition (Rattus norvegicus) | inhibition [19] | also measured
Cc1c(N2CCCC2)nc2ccc(Br)cc2c1C(=O)NC[C@H](CCC(=O)O)c1ccccc1Cl [BAY-6672] | 8.16% | 25% | -7.59% | 5.62% | 19.9% | 6.59% | 16.1% | 14.6% | -2.2% | 15.7% | 2.98% | 11.7% | 1.48% | -4.96% | 5.5% | 9.71% | 37.7% | 4.61% | -2.43% | -5.32% | inhibition [20]: -0.57%
Cc1c(N2CCNCC2)nc2ccc(Br)cc2c1C(=O)NC[C@H](CCC(=O)O)c1ccccc1Cl [BAY-403] | -0.16% | 5.3% | 5.34% | 47.1% | 18.4% | 1.76% | 5.7% | 13.8% | 15.2% | 12.6% | 12.7% | 40.9% | 5.89% | -2.31% | 31% | 2.75% | 86% | 17.5% | 20% | 11.3% | inhibition [20]: 13.7%
